Reference: patent US7820795B2, “Lactobacillus fermentum N-desoxyribosyl transferases and the use thereof for enzymatic synthesis of 2′, 3′—didesoxynucleosides and 2′,3′- didehydro-2′,3′- didesoxynucleosides” (Institut Pasteur, priority 2004, dated 2010)

Legend:
[1] = tested on: HIV (human immunodeficiency virus); details: cited from earlier work
[2] = target: T1, Lactobacillus fermentum N-deoxyribosyl transferase (NTD, LF), native/wild type, SEQ ID No. 2 (Limosilactobacillus fermentum, UniProt Q6YNI5); assay: Enzymatic activity tests (dT+C, ddT+C and d4T+C reactions), native enzyme LF; format: biochemical; details: deoxyribosyl donor + C (cytosine)
T1 construct: crude extract or purified
T1 sequence (Q6YNI5 1-168): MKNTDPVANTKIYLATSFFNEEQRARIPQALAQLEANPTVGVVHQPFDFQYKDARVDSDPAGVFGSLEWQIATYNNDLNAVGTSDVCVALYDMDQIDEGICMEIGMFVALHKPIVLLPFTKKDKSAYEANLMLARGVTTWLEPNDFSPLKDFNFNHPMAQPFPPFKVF
Experimental: 50 μl of enzymatic extract is added to 200 μl of 100 mM citrate buffer, pH 6.44, in the presence of 3 mM ddU or dU final and of 1 mM C final for the strain PAK9, the whole is incubated at 37° C. The progress of the reaction is monitored by TLC (silica; eluent: MeOH—CH2Cl2 (20/80)). […] The disappearance of the substrates and the formation of the products were also quantified by HPLC analysis. The different products are separated by analytical HPLC with a reversed-phase column (100-5C18) using a flow rate of 1 ml/min and a linear gradient of 5-25% CH3CN in a 10 mM triethyl ammonium acetate buffer at pH 7.5 for 20 minutes.
were used as primer in an amplification reaction under standard conditions using the ntd gene of L. fermentum cloned in pSU19 (pLF6) as DNA matrix. The amplification product was digested by the restriction enzymes Nde1 and BamH1 for 2 hours at 37° C., purified on agarose gel and inserted into the plasmid pET24a digested by the same enzymes then the ligation mixture is used to transform the strain β 2033. The plasmid DNA from the colonies was prepared and digested by the enzymes Nde1 and BamH1. […]
The cells are then centrifuged for 15′ at 4000 rpm at 4° C., washed in 50 ml of phosphate buffer then the pellet obtained after centrifugation is preserved overnight at −20° C. […] The fractions are then analyzed by SDS-PAGE gel and the enzymatic activity determined. […] The protein concentration is determined by measuring the OD at 280 nm. […]
The enzymatic activities of the native and mutant N-deoxyribosyl transferases of L. leichmannii (LL and LL G9S) and of L. fermentum (LF and LFA15T) in the exchange reactions dT+C ? dC+T, ddT+C ? ddC+T and d4T+C ? d4C+T were evaluated starting from crude extracts or purified proteins.
These different values were measured according to the protocol described in the literature [P A Kaminski (2002) “Functional cloning, heterologous expression and purification of two different N-deoxyribosyl transferases from Lactobacillus helveticus” J. Biol. Chem; vol. […]

OC[C@@H]1CC[C@H](n2cnc3c(O)ncnc32)O1 [ddl, 2′,3′-dideoxyinosine]
inhibition of replication of HIV [1]: effectively inhibit the replication of HIV

Cc1cn([C@H]2C=C[C@@H](CO)O2)c(=O)[nH]c1=O [d4T, reference compound]
Kcat [2]: 0.56 µmol/s/µg

Nc1ncnc2c1ncn2[C@H]1CC[C@@H](CO)O1 [ddA, 2′,3′-dideoxyadenosine]
inhibition of replication of HIV [1]: effectively inhibit the replication of HIV
